Here are results for 10 molecules from ChEMBL document CHEMBL5584316, “Arcopilins: A New Family of Staphylococcus aureus Biofilm Disruptors from the Soil Fungus Arcopilus navicularis” (J Med Chem, 2024).

The source made the active and inactive calls. No cut-off for these calls is given here.

One data set relates to Escherichia coli. In words: Antimicrobial activity against Escherichia coli DSM 1116 assessed as inhibition of microbial growth incubated overnight by serial dilution method. The class given is functional, organism-based.
A further data set relates to Mucor hiemalis. In words: Antimicrobial activity against Mucor hiemalis DSM 2656 assessed as inhibition of microbial growth incubated overnight by serial dilution method. The class given is functional.
The test system of the next data set is Candida albicans. In words: Antimicrobial activity against Candida albicans DSM 1665 assessed as inhibition of microbial growth incubated overnight by serial dilution method. The class given is functional.
Another data set relates to L929. In words: Cytotoxicity against mouse L929 cells assessed as inhibition of cell growth incubated for 5 days by MTT assay. In kind it is toxicity, cell-based. The conditions noted are these: l929, 120 h, time 5 day.
Data set [1] deals with Mycolicibacterium smegmatis. The data set is described as follows: Antimicrobial activity against Mycobacterium smegmatis ATCC 700084 assessed as inhibition of microbial growth incubated overnight by serial dilution method. In kind it is functional.
Data set [2] deals with Chromobacterium violaceum. In words: Antimicrobial activity against Chromobacterium violaceum DSM 30191 assessed as inhibition of microbial growth incubated overnight by serial dilution method. The class given is functional, organism-based.
Another data set concerns Rhodotorula glutinis. The data set is described as follows: Antimicrobial activity against Rhodotorula glutinis DSM 10134 assessed as inhibition of microbial growth incubated overnight by serial dilution method. The class given is functional, organism-based.
The test system of the next data set is Wickerhamomyces anomalus. The data set is described as follows: Antimicrobial activity against Wickerhamomyces anomalus DSM 6766 assessed as inhibition of microbial growth incubated overnight by serial dilution method. The class given is functional, organism-based.
Data set [3] has as its system Staphylococcus aureus. In words: Antimicrobial activity against Staphylococcus aureus DSM 346 assessed as inhibition of microbial growth incubated overnight by serial dilution method. In kind it is functional.
For a further data set, the system named is KB 3-1. The data set is described as follows: Cytotoxicity against human KB-3-1 cells assessed as inhibition of cell growth incubated for 5 days by MTT assay. The class given is toxicity, cell-based. The conditions noted are these: kb 3-1, 120 h, time 5 day. (In general: Formazan colour is commonly taken as a measure of viable cells.)
A further data set relates to Bacillus subtilis. The data set is described as follows: Antimicrobial activity against Bacillus subtilis DSM 10 assessed as inhibition of microbial growth incubated overnight by serial dilution method. The class given is functional.
The test system of data set [4] is Schizosaccharomyces pombe. The data set is described as follows: Antimicrobial activity against Schizosaccharomyces pombe DSM 70572 assessed as inhibition of microbial growth incubated overnight by serial dilution method. In kind it is functional.
The next data set deals with Pseudomonas aeruginosa. In words: Antimicrobial activity against Pseudomonas aeruginosa PA14 assessed as inhibition of microbial growth incubated overnight by serial dilution method. In kind it is functional, organism-based.
The subject of data set [5] is Staphylococcus aureus. In words: Antibiofilm activity in Staphylococcus aureus DSM1104 assessed as disruption of preformed biofilm at 7.8 to 250 ug/ml incubated for 18 hrs by crystal violet staining based assay relative to control. The class given is functional. The conditions noted are these: dose 7.8-250 µg/ml, at 7.8 to 250 µg/mL.
The subject of data set [6] is Staphylococcus aureus. The data set is described as follows: Antibiofilm activity in Staphylococcus aureus DSM1104 assessed as disruption of preformed biofilm at 3.9 ug/ml incubated for 18 hrs by crystal violet staining based assay relative to control. The class given is functional. The conditions noted are these: dose 3.9 µg/ml.
The test system of data set [7] is Staphylococcus aureus. In words: Antibiofilm activity in Staphylococcus aureus DSM1104 assessed as disruption of preformed biofilm. The class given is functional, organism-based.
Data set [8] has as its system Staphylococcus aureus. In words: Antimicrobial activity against Staphylococcus aureus DSM 1104 assessed as inhibition of microbial growth incubated overnight by serial dilution method. The class given is functional. The following applies: DSM1104.
Data set [9] relates to Staphylococcus aureus. The data set is described as follows: Antibiofilm activity in Staphylococcus aureus DSM1104 assessed as disruption of preformed biofilm at 31.3 ug/ml incubated for 18 hrs by crystal violet staining based assay. The class given is functional, organism-based. The conditions noted are these: dose 31.3 µg/ml.
Data set [10] has as its system Staphylococcus aureus. In words: Antibiofilm activity in Staphylococcus aureus DSM1104 assessed as disruption of preformed biofilm at […] to […] ug/ml incubated for 18 hrs by crystal violet staining based assay relative to control. In kind it is functional. The following applies: dose lower […] microg/ml, dose upper 250 µg/ml.
For data set [11], the system named is Staphylococcus aureus. In words: Antimicrobial activity against Staphylococcus aureus DSM 1104 assessed as disruption of preformed biofilm by measuring reduction in metabolic activity at 2 to 7.8 ug/ml measured every 90 mins for 10 hrs by absorbance based analysis. In kind it is functional, organism-based. The conditions noted are these: dose 2-7.8 µg/ml.
Data set [12] concerns Staphylococcus aureus. The data set is described as follows: Antimicrobial activity against Staphylococcus aureus DSM 1104 assessed as disruption of preformed biofilm by measuring reduction in metabolic activity at 3.9 ug/ml incubated for 24 hrs by XTT assay. The class given is functional, organism-based. The following applies: dose 3.9 µg/ml.
Data set [13] deals with Staphylococcus aureus. In words: Synergistic antimicrobial activity against Staphylococcus aureus DSM 1104 planktonic cells assessed as fold increase in gentamicin potency at 3.9 ug/ml by checkerboard assay relative to control. In kind it is functional. The conditions noted are these: dose 3.9 µg/ml.
Data set [14] deals with Staphylococcus aureus. In words: Synergistic antimicrobial activity against Staphylococcus aureus DSM 1104 planktonic cells assessed as fractional inhibitory concentration index at 3.9 ug/ml in presence of vancomycin by checkerboard assay. In kind it is functional. The following applies: dose 3.9 µg/ml.
The test system of data set [15] is Staphylococcus aureus. The data set is described as follows: Synergistic antimicrobial activity against Staphylococcus aureus DSM 1104 planktonic cells assessed as inhibition of preformed biofilm by measuring fold increase in vancomycin potency at 3.9 to 7.8 ug/ml measured at 24 to 48 hrs by CFU counting assay relative to control. In kind it is functional. The following applies: dose 3.9-7.8 µg/ml; time 24-48 hrs.

For data set [16], the system named is Staphylococcus aureus. The data set is described as follows: Antimicrobial activity against Staphylococcus aureus DSM 346 assessed as inhibition of microbial growth at 3.9 to 7.8 ug/ml measured for 10 hrs. In kind it is functional, organism-based. The conditions noted are these: DSM346, dose 3.9-7.8 µg/ml.
Data set [17] has as its system Staphylococcus aureus. In words: Synergistic antimicrobial activity against Staphylococcus aureus DSM 1104 planktonic cells assessed as gentamicin MIC at 3.9 ug/ml by checkerboard assay. The class given is functional. The conditions noted are these: dose 3.9 µg/ml.
Data set [18] concerns Staphylococcus aureus. The data set is described as follows: Synergistic antimicrobial activity against Staphylococcus aureus DSM 1104 planktonic cells assessed as vancomycin MIC at 3.9 ug/ml by checkerboard assay. The class given is functional. The conditions noted are these: dose 3.9 µg/ml.
In data set [19] the test system is Staphylococcus aureus. In words: Synergistic antimicrobial activity against Staphylococcus aureus DSM 1104 planktonic cells assessed as fractional inhibitory concentration index at 3.9 ug/ml in presence of gentamicin by checkerboard assay. In kind it is functional. The following applies: dose 3.9 µg/ml.
The test system of data set [20] is Staphylococcus aureus. The data set is described as follows: Synergistic antimicrobial activity against Staphylococcus aureus DSM 1104 planktonic cells assessed as inhibition of preformed biofilm by measuring fold increase in gentamicin potency at 3.9 to 7.8 ug/ml measured at 24 to 48 hrs by CFU counting assay relative to control. The class given is functional. The following applies: dose 3.9-7.8 µg/ml; time 24-48 hrs.

Data set [21] relates to Staphylococcus aureus. The data set is described as follows: Antibiofilm activity in Staphylococcus aureus DSM1104 assessed as disruption of preformed biofilm at 3.9 to 250 ug/ml incubated for 18 hrs by crystal violet staining based assay. In kind it is functional, organism-based. The conditions noted are these: dose 3.9-250 µg/ml.

On to `C[C@@H](C[C@H](C)C(=O)C1=C(O)/C(=C/c2ccccc2)NC1=O)C[C@](C)(O)C(=O)CO`, for which the outcome (in the data set with Escherichia coli; with Mucor hiemalis; with Candida albicans; in data set [1]; in data set [2]; with Rhodotorula glutinis) was inactive. Moreover, the result (in the data set on Wickerhamomyces anomalus; with Staphylococcus aureus [3]; with Bacillus subtilis; in data set [4]; in the data set with Pseudomonas aeruginosa) was inactive. For the same molecule, the Activity entry in the data set on L929 and in the data set with KB 3-1 was “Non-Toxic” each time.

`C[C@H](C[C@@H](C)[C@H](C)OC=O)C[C@H](C)C(=O)C1=C(O)/C(=C/c2ccccc2)NC1=O`: the outcome (with Escherichia coli; in the data set with Candida albicans; in [1]; in data set [2]; in the data set on Rhodotorula glutinis; with Wickerhamomyces anomalus) was inactive. The result (in data set [4]; in the data set on Pseudomonas aeruginosa) was inactive. In addition, the Activity in the data set with Staphylococcus aureus [5] was 50%; in the data set with Staphylococcus aureus [6] it was 35%.

For the molecule NYSTATIN, the minimal inhibitory concentration (MIC) with Mucor hiemalis amounted to 8.3 µg/mL; in the data set with Rhodotorula glutinis, 4.2 µg/mL; with Wickerhamomyces anomalus it was 8.3 µg/mL; in data set [4], 4.2 µg/mL.

As for `CCC(/C=C(C)/C=C/C(=O)c1c(O)c(-c2ccc(O)cc2)cn(O)c1=O)CO` (centres undefined), the outcome in the data set with Staphylococcus aureus [7] was inactive.

As to `C[C@H](C[C@@H](C)[C@H](C)O)C[C@H](C)C(=O)C1=C(O)/C(=C/c2ccccc2)NC1=O`, the result (in the data set with Escherichia coli; with Mucor hiemalis; in the data set on Candida albicans; in [1]; in data set [2]; in the data set with Rhodotorula glutinis) was inactive. Besides, the outcome (in the data set on Wickerhamomyces anomalus; in data set [4]; with Pseudomonas aeruginosa) was inactive. In addition, the Activity entry with L929 and in the data set with KB 3-1 was “Non-Toxic” throughout.

Regarding `C[C@@H](C[C@H](C)C(=O)C1=C(O)/C(=C/c2ccccc2)NC1=O)C[C@](C)(O)[C@@H](O)CO`, the outcome (in the data set with Escherichia coli; in the data set with Mucor hiemalis; with Candida albicans; in [1]; in data set [2]; in the data set on Rhodotorula glutinis) was inactive. For the same molecule, the result (in the data set with Wickerhamomyces anomalus; in the data set with Staphylococcus aureus [3]; in the data set on Bacillus subtilis; in [4]; in the data set with Pseudomonas aeruginosa) was inactive. For the same molecule, the Activity entry in the data set with L929 and in the data set on KB 3-1 was “Non-Toxic” throughout.

Consider GENTAMICIN, for which the MIC in the data set on Escherichia coli came out at 1.7 µg/mL; in [2], 0.42 µg/mL; in the data set on Staphylococcus aureus [3], 0.4 µg/mL; in the data set with Pseudomonas aeruginosa, 0.21 µg/mL; in the data set with Staphylococcus aureus [8], 15.7 µg/mL.

Take `CC[C@H](C)C[C@@H](C)C[C@H](C)C(=O)C1=C(O)/C(=C/c2ccccc2)NC1=O`: the outcome (in the data set with Escherichia coli; with Candida albicans; in data set [2]; in the data set with Rhodotorula glutinis; in the data set on Wickerhamomyces anomalus; in the data set with Staphylococcus aureus [3]) was inactive. Besides, the outcome (in data set [4]; in the data set with Pseudomonas aeruginosa) was inactive. Moreover, the result in the data set on Staphylococcus aureus [9] was Active.

Consider `CC(=O)[C@H](C)C[C@@H](C)C[C@H](C)C(=O)C1=C(O)/C(=C/c2ccccc2)NC1=O`, for which the outcome (with Escherichia coli; in [1]; in data set [2]; in the data set on Rhodotorula glutinis; in the data set on Wickerhamomyces anomalus; with Pseudomonas aeruginosa) was inactive. The Activity in the data set on Staphylococcus aureus [10] is reported as roughly 50%; with Staphylococcus aureus [6], 35%. Further, the result in the data set with Staphylococcus aureus [11], in the data set with Staphylococcus aureus [12] and in the data set on Staphylococcus aureus [16] was Active. Also, the “fold change (FC)” value in the data set with Staphylococcus aureus [13] was 115; with Staphylococcus aureus [15], 3; in the data set on Staphylococcus aureus [20], 3. Moreover, the “fractional inhibitory concentration index (FICI)” value in the data set with Staphylococcus aureus [14] was 0.158; in the data set with Staphylococcus aureus [19], 0.126. For the same molecule, the values for the MIC with Staphylococcus aureus [17] and in the data set on Staphylococcus aureus [18] were 0.13 µg/mL and 0.065 µg/mL, respectively.

For `CC[C@H](C)[C@@H]1O[C@H](c2c(O)c(-c3ccccc3)cn(O)c2=O)[C@@H](C)C[C@@H]1C`, the result (with Escherichia coli; in the data set on Mucor hiemalis; with Candida albicans; in [1]; in data set [2]; with Rhodotorula glutinis) was inactive. Also, the outcome (with Wickerhamomyces anomalus; in the data set with Staphylococcus aureus [21]; in [4]; in the data set with Pseudomonas aeruginosa) was inactive.

The term MIC denotes the least concentration at which growth counts as inhibited.
